Data as given in the NIST ThermoML archive (doi:10.1016/j.jct.2004.04.013).
Several values for one entry are separate records, joined by “and”; a condition that tells them apart may be missing. Identical values can stand only once. ± gives the expanded uncertainty stated by the source.

Settings: Liquid, Pulse-echo method

ClC(Cl)(Cl)Cl [tetrachloromethane]
Settings	speed of sound [m/s]
283.15 K, 101 kPa	969.1 ± 2
283.15 K, 497 kPa	970.5 ± 2
283.15 K, 1065 kPa	972.7 ± 2
283.15 K, 2192 kPa	976.9 ± 2
283.15 K, 2306 kPa	977.4 ± 2
283.15 K, 3433 kPa	981.6 ± 2
283.15 K, 5102 kPa	987.7 ± 2
283.15 K, 5958 kPa	990.8 ± 2
283.15 K, 7972 kPa	998 ± 2.1
283.15 K, 8771 kPa	1000.6 ± 2.1
283.15 K, 9833 kPa	1004.6 ± 2.1
283.15 K, 11260 kPa	1009.5 ± 2.1
283.15 K, 12970 kPa	1015.5 ± 2.1
283.15 K, 13650 kPa	1017.6 ± 2.1
283.15 K, 16043 kPa	1026 ± 2.1
283.15 K, 19058 kPa	1035.9 ± 2.1
283.15 K, 22343 kPa	1046.6 ± 2.2
283.15 K, 25816 kPa	1057.5 ± 2.2
283.15 K, 30453 kPa	1071.7 ± 2.2
298.15 K, 101 kPa	921.1 ± 1.9
298.15 K, 583 kPa	923.1 ± 1.9
298.15 K, 865 kPa	924.2 ± 1.9
298.15 K, 887 kPa	924.4 ± 1.9
298.15 K, 1384 kPa	926.4 ± 1.9
298.15 K, 1731 kPa	927.8 ± 1.9
298.15 K, 1900 kPa	928.4 ± 1.9
298.15 K, 2056 kPa	929.1 ± 1.9
298.15 K, 2905 kPa	932.5 ± 1.9
298.15 K, 3020 kPa	933 ± 1.9
298.15 K, 3919 kPa	936.6 ± 1.9
298.15 K, 4367 kPa	938.4 ± 1.9
298.15 K, 4908 kPa	940.5 ± 1.9
298.15 K, 5436 kPa	942.6 ± 1.9
298.15 K, 5946 kPa	944.5 ± 2
298.15 K, 6868 kPa	948 ± 2
298.15 K, 7358 kPa	949.9 ± 2
298.15 K, 7761 kPa	951.5 ± 2
298.15 K, 8818 kPa	955.5 ± 2
298.15 K, 8930 kPa	955.9 ± 2
298.15 K, 9903 kPa	959.6 ± 2
298.15 K, 10321 kPa	961.2 ± 2
298.15 K, 11239 kPa	964.6 ± 2
298.15 K, 12541 kPa	969.3 ± 2
298.15 K, 13397 kPa	972.5 ± 2
298.15 K, 14945 kPa	978 ± 2
298.15 K, 15313 kPa	979.4 ± 2
298.15 K, 17404 kPa	986.8 ± 2
298.15 K, 17674 kPa	987.8 ± 2
298.15 K, 20253 kPa	996.7 ± 2.1
298.15 K, 20404 kPa	997.2 ± 2.1
298.15 K, 22533 kPa	1004.5 ± 2.1
298.15 K, 24855 kPa	1012.3 ± 2.1
298.15 K, 24984 kPa	1012.8 ± 2.1
298.15 K, 25186 kPa	1013.4 ± 2.1
298.15 K, 27693 kPa	1021.7 ± 2.1
298.15 K, 29953 kPa	1029 ± 2.1
298.15 K, 30569 kPa	1030.8 ± 2.1
313.15 K, 101 kPa	874.2 ± 1.8
313.15 K, 108 kPa	874.2 ± 1.8
313.15 K, 478 kPa	875.9 ± 1.8
313.15 K, 894 kPa	877.7 ± 1.8
313.15 K, 1827 kPa	881.9 ± 1.8
313.15 K, 2938 kPa	886.7 ± 1.8
313.15 K, 4119 kPa	891.6 ± 1.8
313.15 K, 5135 kPa	896.1 ± 1.9
313.15 K, 5591 kPa	898 ± 1.9
313.15 K, 6975 kPa	903.6 ± 1.9
313.15 K, 8334 kPa	909.4 ± 1.9
313.15 K, 10049 kPa	916.2 ± 1.9
313.15 K, 12992 kPa	927.9 ± 1.9
313.15 K, 14421 kPa	933.4 ± 1.9
313.15 K, 16421 kPa	941.1 ± 1.9
313.15 K, 18812 kPa	949.9 ± 2
313.15 K, 20514 kPa	956.3 ± 2
313.15 K, 25209 kPa	972.9 ± 2
313.15 K, 31645 kPa	994.8 ± 2.1
333.15 K, 101 kPa	813 ± 1.7
333.15 K, 967 kPa	817.4 ± 1.7
333.15 K, 1691 kPa	820.9 ± 1.7
333.15 K, 2195 kPa	823.4 ± 1.7
333.15 K, 3177 kPa	828.1 ± 1.7
333.15 K, 5118 kPa	837.4 ± 1.7
333.15 K, 5595 kPa	839.5 ± 1.7
333.15 K, 7312 kPa	847.3 ± 1.8
333.15 K, 8236 kPa	851.5 ± 1.8
333.15 K, 9201 kPa	855.8 ± 1.8
333.15 K, 10593 kPa	862 ± 1.8
333.15 K, 11851 kPa	867.4 ± 1.8
333.15 K, 13131 kPa	872.9 ± 1.8
333.15 K, 14740 kPa	879.6 ± 1.8
333.15 K, 15989 kPa	884.8 ± 1.8
333.15 K, 17758 kPa	892.1 ± 1.8
333.15 K, 19476 kPa	898.9 ± 1.9
333.15 K, 20905 kPa	904.6 ± 1.9
333.15 K, 22422 kPa	910.5 ± 1.9
333.15 K, 25433 kPa	922 ± 1.9
333.15 K, 27880 kPa	931.1 ± 1.9
333.15 K, 31372 kPa	943.7 ± 1.9

c1ccccc1 [benzene]
Settings	speed of sound
283.15 K, 101 kPa	1371.6 ± 2.8 m/s
283.15 K, 1112 kPa	1376.8 ± 2.8 m/s
283.15 K, 2281 kPa	1382.4 ± 2.8 m/s
283.15 K, 4616 kPa	1393.2 ± 2.9 m/s
283.15 K, 6766 kPa	1403.3 ± 2.9 m/s
283.15 K, 9100 kPa	1413.6 ± 2.9 m/s
283.15 K, 11628 kPa	1424.5 ± 2.9 m/s
283.15 K, 14278 kPa	1436 ± 2.9 m/s
283.15 K, 15957 kPa	1443.4 ± 3 m/s
283.15 K, 18556 kPa	1454 ± 3 m/s
283.15 K, 20823 kPa	1463 ± 3 m/s
283.15 K, 23405 kPa	1473.4 ± 3 m/s
298.15 K, 101 kPa	1299.9 ± 2.7 m/s and 1300.2 ± 2.7 m/s
298.15 K, 888 kPa	1305 ± 2.7 m/s
298.15 K, 1246 kPa	1305.8 ± 2.7 m/s
298.15 K, 2254 kPa	1311.8 ± 2.7 m/s
298.15 K, 2506 kPa	1312.2 ± 2.7 m/s
298.15 K, 4580 kPa	1322.5 ± 2.7 m/s
298.15 K, 4719 kPa	1323.9 ± 2.7 m/s
298.15 K, 6991 kPa	1334.4 ± 2.7 m/s
298.15 K, 7131 kPa	1335.5 ± 2.7 m/s
298.15 K, 9327 kPa	1346.2 ± 2.8 m/s
298.15 K, 9335 kPa	1346.2 ± 2.8 m/s
298.15 K, 9408 kPa	1346 ± 2.8 m/s
298.15 K, 11563 kPa	1355.8 ± 2.8 m/s
298.15 K, 11640 kPa	1357 ± 2.8 m/s
298.15 K, 14137 kPa	1368.5 ± 2.8 m/s
298.15 K, 14317 kPa	1368.6 ± 2.8 m/s
298.15 K, 15927 kPa	1375.9 ± 2.8 m/s
298.15 K, 16524 kPa	1379.1 ± 2.8 m/s
298.15 K, 18655 kPa	1388.6 ± 2.9 m/s
298.15 K, 18844 kPa	1389 ± 2.9 m/s
298.15 K, 20826 kPa	1398.1 ± 2.9 m/s
298.15 K, 21001 kPa	1398.6 ± 2.9 m/s
298.15 K, 23151 kPa	1407.9 ± 2.9 m/s
298.15 K, 23834 kPa	1410.7 ± 2.9 m/s
298.15 K, 25699 kPa	1418.5 ± 2.9 m/s
298.15 K, 26172 kPa	1420.5 ± 2.9 m/s
298.15 K, 28369 kPa	1428.5 ± 2.9 m/s
313.15 K, 101 kPa	1230.8 ± 2.5 m/s
313.15 K, 2047 kPa	1241.3 ± 2.6 m/s
313.15 K, 3268 kPa	1247.8 ± 2.6 m/s
313.15 K, 5111 kPa	1257.8 ± 2.6 m/s
313.15 K, 7199 kPa	1268.7 ± 2.6 m/s
313.15 K, 9383 kPa	1280 ± 2.6 m/s
313.15 K, 11613 kPa	1291.3 ± 2.7 m/s
313.15 K, 14139 kPa	1303.7 ± 2.7 m/s
313.15 K, 16386 kPa	1314.6 ± 2.7 m/s
313.15 K, 18686 kPa	1325.5 ± 2.7 m/s
313.15 K, 21242 kPa	1337.2 ± 2.7 m/s
313.15 K, 23254 kPa	1346.4 ± 2.8 m/s
313.15 K, 24384 kPa	1351.3 ± 2.8 m/s
313.15 K, 25607 kPa	1357.2 ± 2.8 m/s
313.15 K, 25608 kPa	1357.3 ± 2.8 m/s
313.15 K, 28210 kPa	1368.6 ± 2.8 m/s
333.15 K, 101 kPa	1142.4 ± 2.4 m/s
333.15 K, 1260 kPa	1148 ± 2.4 m/s
333.15 K, 2426 kPa	1155 ± 2.4 m/s
333.15 K, 5026 kPa	1170.5 ± 2.4 m/s
333.15 K, 7135 kPa	1182.9 ± 2.4 m/s
333.15 K, 9195 kPa	1194.5 ± 2.5 m/s
333.15 K, 11729 kPa	1208.4 ± 2.5 m/s
333.15 K, 14011 kPa	1220.6 ± 2.5 m/s
333.15 K, 16310 kPa	1232.7 ± 2.5 m/s
333.15 K, 18687 kPa	1244.8 ± 2.6 m/s
333.15 K, 20059 kPa	1251.8 ± 2.6 m/s
333.15 K, 21112 kPa	1257.2 ± 2.6 m/s
333.15 K, 23196 kPa	1267.4 ± 2.6 m/s
333.15 K, 25517 kPa	1278.7 ± 2.6 m/s
333.15 K, 28165 kPa	1287.7 ± 2.6 m/s
